# Test results taken from patent US8158169B2, “Chinese medicine composition and preparation method and use thereof” (priority 2006, dated 2012).
# Legend:
# Ach in whole brain = assay: Content of ACh in whole brain, rats with Aβ toxicity injury; settings: Aβ1-40 rats, four weeks after drug administered, dosage 0.08 mg/kg
# hippocampus nerve cells [1] = assay: Ultrastructure of hippocampus nerve cells, rats with natural aging cognition impairment; settings: contrary to the model group
# MDA = assay: Content of MDA of whole brain, rats with natural aging cognition impairment; settings: 12 weeks after drug administered, dosage 0.08 mg/kg
# Description: (§3) The detection is performed as per the instruction of the reagent kits.
# [2] = test system: 5-HT and 5-HIAA in the whole brain; assay: Monoamine neurotransmitters in whole brain of APP transgenic mice; format: in vivo; settings: positive Huperzine A group
# Text: (§1) Acta Pharmacol Sin. 2004; 25: 1118˜23.
# hippocampus nerve cells [3] = assay: Ultrastructure of hippocampus nerve cells, rats with Aβ toxicity impairment; format: in vivo; settings: compared with the model group
# Text: There are margination and pyknosis of chromosome of nucleus of hippocampus nerve cells in rats of the model group; the volume of cell is lessened and the cytoplasm is concentrated; the mitochondria are mildly swelling in a few cells; the cell organelle such as the rough endoplasmic reticulum and ribosome are generally normal; and the presynaptic and postsynaptic membranes are not clear. The synaptic space disappears.
# SOD = assay: Activity of SOD of whole brain, rats with natural aging cognition impairment; settings: 12 weeks after drug administered, dosage 0.08 mg/kg
# Description: as §3
# [4] = test system: mice with ethanol induced memory retrieval impairment; assay: Step through experiment, mice with ethanol induced memory retrieval impairment; format: in vivo; settings: ethanol model mice, dosage 0.08 mg/kg
# [5] = test system: rats impaired by β-amyloid precursor protein (Aβ) toxicity; assay: Morris water maze, rats impaired by Aβ toxicity; format: in vivo; settings: Morris water maze swimming; Aβ 1-40 rats, four weeks; dosage 0.08 mg/kg
# Text: (§2) The search strategy is mostly marginal or random. […]
# [6] = test system: rats impaired by toxicity; assay: Morris water maze, rats impaired by Aβ toxicity; format: in vivo; settings: Morris water maze swimming; Aβ 1-40 rats, four weeks; dosage 0.08 mg/kg
# Text: as §2
# Na+-K+-ATP enzyme = settings: whole brain, Aβ1-40 rats; four weeks after drug administered; dosage 0.08 mg/kg
# Description: as §3
# 2VO rats = assay: Morris water maze, VD rats with bilateral common carotid artery permanent ligation (2VO); settings: dosage 0.06 mg/kg
# [7] = test system: monoamine neurotransmitters and its metabolites in whole brain; assay: Monoamine neurotransmitters and metabolites in whole brain, rats with Aβ toxicity injury; format: in vivo; settings: dosage 0.08 mg/kg
# Text: as §1
# ACh in brain = assay: Content of ACh in brain of 2VO rats; settings: 3 months after 2VO, two months after drug administered, dosage 0.06 mg/kg
# [8] = test system: mice with scopolamine hydrobromide induced memory impairment; assay: Step down experiment, mice with scopolamine hydrobromide induced memory impairment; settings: scopolamine model mice, dosage 0.08 mg/kg
# Description: 1.1.2 The experiment is performed as per Nervous System Drugs Section 5 in Methodology of Pharmaceutical Experiment (XU Shu-yun, et al.).
# [9] = test system: pyramidal cells of hippocampus; assay: HE staining, histomorphology of rats with D-galactose induced brain aging; format: in vivo; settings: compared with the model group
# Description: The experiment is performed as per Section 2, Chapter 7 of Pathological Tissue Sectioning and Staining Technology (Gong Zhi-jin et al.).
# The pyramidal cells of hippocampus of rats in the blank group are tight in alignment, obvious with the upper and lower cell lines and rich in number of cells; the nuclear membrane are clear with distinct nucleolus. The pyramidal cells of hippocampus of rats in the model group is loosening in the alignment, oblique in the cellular structure, swelling in the cell body and irregular in the upper and lower cell lines; Some cells have nucleus pyknosis and deep staining.
# [10] = 15 days after drug administered
compound,measurement,setting,value
C/C=C1\[C@H]2C=C(C)C[C@]1(N)c1ccc(=O)[nH]c1C2 [Huperzine A],Content of ACh,Ach in whole brain,180.0 ± 23.5 µg/L
same,ultrastructure of hippocampus nerve cells,hippocampus nerve cells [1],better morphology and structure and clearer cell membrane
same,Content of MDA,MDA,3.50 ± 0.43 nmol/mgProt
same,5-HT and 5-HIAA in the whole brain,[2],decrease to different degrees
same,ultrastructure of hippocampus nerve cells,hippocampus nerve cells [3],"better morphology and structure, clearer cell membrane and pre- and post-synaptic membranes"
same,Activity of SOD,SOD,43.68 ± 2.55 NU/mgProt
same,Latency,[4]; [10],214.1 ± 127.8 s
same,Number of Mistakes,"[4]; in 5 minutes, 15 days",1.0 ± 1.3
same,Length of time,[5],16.3 ± 10.6
same,Length of route,[6],436.7 ± 284.4
same,Activity of Na+—K+-ATP,Na+-K+-ATP enzyme,0.207 ± 0.025 μmoLPi/mgProt/h
same,"Time of passing through maze, 1 month after ligation",2VO rats; 1 month after ligation,61.3 ± 25.2 s
same,"Time of passing through maze, 2 months after ligation",2VO rats; 2 months after ligation (one month after drug administered),29.1 ± 18.5 s
same,"Time of passing through maze, 3 months after ligation",2VO rats; 3 months after ligation (two months after drug administered),10.8 ± 5.6 s
same,5-HIAA,[7],27.3 ± 3.1 µg/L
same,5-HT,[7],41.7 ± 5.9 µg/L
same,DA,[7],136.2 ± 8.5 µg/L
same,DOPAC,[7],13.4 ± 1.3 µg/L
same,HVA,[7],15.4 ± 9.4 µg/L
same,NE,[7],75.9 ± 11.3 µg/L
same,Content of ACh,ACh in brain,221.4 ± 41.9 µg/L
same,Latency,[8]; [10],271.8 ± 54.6 s
same,Number of Error,"[8]; in 5 minutes, 15 days",0.6 ± 0.9
same,histomorphology of pyramidal cells of hippocampus (HE staining),[9],in order of alignment with clearer contour of cells
